Data taken from patent US20260375265A1, “COMPOSITION FOR ALLEVIATING SKIN PIGMENTATION” (LG H & H CO., LTD., priority 2023, published 2026).
Counter-ions that a name gives are not always drawn. Like-named read-outs stand apart in the source and are kept apart here.

What was measured:
AKAP1 = assay: qPCR of AKAP1 mRNA expression in UVB-irradiated mouse melanoma cells; type: cell-based; conditions: B16F10, UVB 30 mJ/cm^2 (312 nm), substance one day, appropriate concentration; FIG. 1; UVB alone increased
Protocol: (§1) Screening was performed for substances that influence the expression of genes associated with scattered dark spots on skin among various substances having skin-improving efficacy. Changes in the expression of genes associated with scattered dark spots on skin were examined in cells where melanin synthesis was increased by UVB exposure, and substances that restored the expression to the level before UVB exposure were selected.
(§2) Mouse melanoma cells (B16F10; CRL-6475) were purchased from ATCC for use. The purchased cells were cultured in a 37 °C/5% CO2 incubator using a medium prepared by supplementing Dulbecco's Modified Eagle Medium (DMEM-GIBCO) with 10% fetal bovine serum (FBS) and 1% penicillin/streptomycin.
(§3) To analyze the efficacy on changes in the mRNA expression of genes associated with scattered dark spots on skin, mouse melanoma cells were seeded at 2*10^5 cells/well in 6-well plates and cultured in a 37 °C/5% CO2 incubator for one day. After replacing the medium with PBS, 30 mJ/cm^2 of UVB (312 nm) was irradiated using an RMX 3W (Vilber Lourmat) instrument. Substances were added to the medium at appropriate concentrations and cultured for one day under the same conditions. […] The expression level of each gene was analyzed by performing qPCR using synthesized cDNA and taqman probe (assay ID: AKAP1-Mm00501539_m1, RAB11FIP2-Mm01261268_m1, PPARGC1B-Mm00504730_m1).

OCA2 = assay: qPCR of OCA2 mRNA expression in a-MSH-treated melanocytes (B16F10); type: cell-based, mouse; conditions: a-MSH 10 nM plus substance, 1 day, appropriate concentration; FIG. 2
Protocol: (§4) Screening was performed for substances that influence the expression of genes associated with dark skin tone among various substances having skin-improving efficacy. Changes in the expression of genes associated with dark skin tone were examined in cells where melanin synthesis was increased by a-MSH, and substances that restored the expression to the level before a-MSH treatment were selected.
as §2
(§5) To analyze the efficacy on changes in the mRNA expression of genes associated with dark skin tone, RT-qPCR experiment was conducted. Cells were cultured in a 37 °C/5% CO2 incubator for one day. To assess the change of KITLG expression by UVB, the medium of human keratinocytes (HaCaT) was replaced with PBS, and 30 mJ/cm^2 of UVB (312 nm) was irradiated using an RMX 3W (Vilber Lourmat) instrument. The medium was replaced with a fresh medium and cultured for one day. To assess the change in KITLG expression by treatment with substances, the cells were treated with appropriate concentrations of substances along with a fresh medium and cultured for one day. In addition, to assess the OCA2, BNC2, and RAB32 expression, melanocytes were treated with a-MSH (10 nM) and appropriate concentrations of substances in a fresh medium and cultured for 1 day. Thereafter, total RNA was obtained using AccuPrep Universal RNA Extraction Kit (Bioneer, K-3140), and cDNA was synthesized using AccuPower® RocketScript™ Cycle (Bioneer, K-2202). The expression level of each gene was analyzed by performing qPCR using synthesized cDNA and taqman probe (assay ID: OCA2-Mm00498969_m1, BNC2-Mm00556284_m1, RAB32-Mm00458960_m1, KITLG-Hs00241497_m1).

[1] = system: protein carbonylation of keratinocytes; assay: Protein carbonylation inhibition in UVA-irradiated human keratinocytes (HaCaT); type: cell-based; conditions: relative to UVA-only group, significant
Protocol: Previous studies have shown that skin dullness and yellowness are promoted by protein carbonylation of keratinocytes. Therefore, through a protein carbonylation assay, it was examined whether or not customized substances for dark skin tone may also improve skin dullness and yellowness.
Human keratinocytes (HaCaT) were seeded at 1×10^4 in black clear-bottom 96-well plates, and after 24 hours, treated with customized substances at appropriate concentrations. After another 24 hours, cells were irradiated with […] of UVA, washed with PBS, and then incubated with fluolescein-5-thiosemicabarzide in MES buffer for 1 hour at room temperature. After another washing with PBS, fluorescence was measured using a plate reader at an excitation of 492 nm and an emission of 562 nm. Furthermore, based on the UVA-only treatment group, the reduction in protein carbonylation by other effective substances was measured.

RAB32 = assay: qPCR of RAB32 mRNA expression in a-MSH-treated melanocytes (B16F10); type: cell-based, mouse; conditions: a-MSH 10 nM plus substance, 1 day, appropriate concentration; FIG. 2
Protocol: as §4, §2, §5

TP63 = assay: qPCR of TP63 mRNA expression in UVB-irradiated HaCaT cells; type: cell-based, human; conditions: UVB 10 mJ/cm^2, appropriate concentration, FIG. 3, UVB alone increased
Protocol: as §4, with “spot pigmentation” for “dark skin tone”, “having the” for “having”
(§6) To analyze the efficacy on changes in the mRNA expression of genes associated with skin spot pigmentation, mouse melanoma cells were seeded at […] cells/well in 6-well plates and cultured in a 37 °C/5% CO2 incubator for one day. After replacing the medium with a fresh medium, 10 nM α-MSH was treated, and substances were added to the medium at appropriate concentrations and cultured for one day under the same conditions. Thereafter, total RNA was obtained using AccuPrep Universal RNA Extraction Kit (Bioneer, K-3140), and cDNA was synthesized using AccuPower® RocketScript™ Cycle (Bioneer, K-2202). The expression level of each gene was analyzed by performing qPCR using synthesized cDNA and taqman probe (assay ID: ASCL2-Mm01268891_m1, PPARGC1B-Mm00504730_m1, TP63-Hs00978349_m1).
TP63 expression was increased by 10 mJ/cm^2 of UVB in human keratinocytes, HaCaT. […]

[2] = system: mouse melanoma cells and human keratinocytes; assay: Inhibition of melanin production increased by a-MSH (dark skin tone); type: cell-based; conditions: Keratinocyte, 48 h, a-MSH 10 nM, two days
Protocol: In detail, mouse melanoma cells and human keratinocytes were seeded at […] cells/well in 6-well plates and cultured in a 37 °C/5% CO2 incubator for one day, followed by treatment with 10 nM of a-MSH. Each of media comprising appropriate concentrations and combinations of substances was added and cultured again in a 37 °C/5% CO2 incubator for two days to determine whether the substances inhibited the melanin production increased by a-MSH. Cells attached to the plates were collected in PBS and centrifuged to obtain cell pellets. The cell pellets were visually inspected and photographed. The cell pellets were dissolved in a 1 N NaOH (sodium hydroxide) solution comprising 10% dimethyl sulfoxide (DMSO) at 80 °C for 10 minutes, and placed in a 96-well plate, and absorbance at 405 nm was measured using an Epoch (Biotek) instrument. Melanin was quantified using the measured absorbance and normalized to the sample protein concentration to determine melanin concentration. The inhibition rate of melanin production of the sample was calculated as a ratio of the melanin concentration of the sample treatment group with respect to the melanin concentration increased by a-MSH treatment.
E1=(X+Y)−(XY+XZ+YZ/100)+XYZ/10000 Colby equation
E2=X+Y−(XY/100) Colby equation

BNC2 = assay: qPCR of BNC2 mRNA expression in a-MSH-treated melanocytes (B16F10); type: cell-based, mouse; conditions: a-MSH 10 nM plus substance, 1 day, appropriate concentration; FIG. 2
Protocol: as §4, §2, §5

PPARGC1B [3] = assay: qPCR of PPARGC1B mRNA expression in UVB-irradiated mouse melanoma cells; type: cell-based; conditions: B16F10, UVB 30 mJ/cm^2 (312 nm), substance one day, appropriate concentration; FIG. 1; UVB alone decreased
Protocol: as §1, §2
To analyze the efficacy on changes in the mRNA expression of genes associated with scattered dark spots on skin, mouse melanoma cells were seeded at 2*10^5 cells/well in 6-well plates and cultured in a 37 °C/5% CO2 incubator for one day. After replacing the medium with PBS, 30 mJ/cm^2 of UVB (312 nm) was irradiated using an RMX 3W (Vilber Lourmat) instrument. Substances were added to the medium at appropriate concentrations and cultured for one day under the same conditions. Thereafter, total RNA was obtained using AccuPrep Universal RNA Extraction Kit (Bioneer, K-3140), and cDNA was synthesized using AccuPower® RocketScript Cycle (Bioneer, K-2202). The expression level of each gene was analyzed by performing qPCR using synthesized cDNA and taqman probe (assay ID: AKAP1-Mm00501539_m1, RAB11FIP2-Mm01261268_m1, PPARGC1B-Mm00504730_m1).

RAB11FIP2 = assay: qPCR of RAB11FIP2 mRNA expression in UVB-irradiated mouse melanoma cells; type: cell-based; conditions: B16F10, UVB 30 mJ/cm^2 (312 nm), substance one day, appropriate concentration; FIG. 1; UVB alone decreased
Protocol: as §1, §2, §3

PPARGC1B [4] = assay: qPCR of PPARGC1B mRNA expression in a-MSH-treated B16F10 cells; type: cell-based, mouse; conditions: B16F10, 10 nM a-MSH plus substance, one day, appropriate concentration; FIG. 3
Protocol: as §4, with “spot pigmentation” for “dark skin tone”, “having the” for “having”
as §2, §6

With `NCCS` [cysteamine HCl] the “change of AKAP1 expression” value (AKAP1) was “decreasing”.
In the case of `CC(C)CCCCCCCCCCCCCCC(=O)O` [isostearic acid], the “change of OCA2 expression” value (OCA2) is reported as “decreasing” and the inhibition at 50 ppm ([1]; Homo sapiens, light or radiation study, 50 ppm, FIG. 9, read-out: reduction in protein carbonylation) is reported as 31%.
For gamma oryzanol, the “change of RAB32 expression” value (RAB32) was “decreasing”, the “change of OCA2 expression” value (OCA2) was “decreasing” and the “reduction in protein carbonylation” value ([1]; 2.5 ppm, FIG. 9) was 39%.
With `NC[C@H]1CC[C@H](C(=O)O)CC1` [tranexamic acid, trans-4-(aminomethyl)cyclohexanecarboxylic acid, reference compound] the “change of OCA2 expression” value (OCA2) was “decreasing”.
With `CC(=O)C(=O)[O-].[Na+]` [sodium pyruvate] the “change of TP63 expression” value (TP63) was “decreased”.
`COc1cc(/C=C/C(=O)O)ccc1O` [ferulic acid, 4-hydroxy-3-methoxycinnamic acid] was tested, and the inhibition at 10 ppm ([2]; 10 ppm, FIG. 5, read-out: reduction of melanin production (X)) was roughly 5.04%, the “change of RAB32 expression” value (RAB32) was “decreasing” and the “change of OCA2 expression” value (OCA2) was “decreasing”. For the same molecule, the “change of BNC2 expression” value (BNC2) was “decreasing”.
With `O=C1O[C@H](CO)[C@@H](O)[C@H](O)[C@H]1O` [gluconolactone, glucono-delta-lactone] the “change of PPARGC1B expression” value (PPARGC1B [3]) was “increased”.
For `CC(C)=CCC[C@](C)(O)[C@@H]1CC=C(C)CC1` [bisabolol, 6-methyl-2-(4-methylcyclohex-3-en-1-yl)hept-5-en-2-ol], the “change of RAB11FIP2 expression” value (RAB11FIP2) was “increasing”.
`CCOC1=C(O)C(=O)O[C@@H]1[C@@H](O)CO` [3-O-ethyl ascorbic acid] was tested, and the “change of PPARGC1B expression” value (PPARGC1B [4]) was “increased”.
In the case of `OC[C@H]1O[C@@H](Oc2cc(O)cc(/C=C/c3ccc(O)cc3)c2)[C@H](O)[C@@H](O)[C@@H]1O` [polydatin, 3,4′,5-trihydroxystilbene-3-mono-D glucoside], the inhibition at 10 ppm ([2]; 10 ppm polydatin, FIG. 6, read-out: reduction of melanin production) is reported as roughly 23.8%, the “change of RAB32 expression” value (RAB32) is reported as “decreasing” and the “change of OCA2 expression” value (OCA2) is reported as “decreasing”. For the same molecule, the “change of BNC2 expression” value (BNC2) was “decreasing”.
For `O=c1c(O)c(-c2ccc(O)c(O)c2)oc2cc(O)cc(O)c12` [quercetin], the inhibition at 20 ppm ([2]; 20 ppm quercetin, FIG. 6, read-out: reduction of melanin production) was roughly 33.9%, the “change of RAB32 expression” value (RAB32) was “decreasing” and the “change of OCA2 expression” value (OCA2) was “decreasing”.
With `O=c1c(-c2ccc(O)cc2)coc2cc(O)cc(O)c12` [genistein] the “change of RAB32 expression” value (RAB32) was “decreasing”, the “change of OCA2 expression” value (OCA2) was “decreasing” and the “change of BNC2 expression” value (BNC2) was “decreasing”.
For `N[C@@H](CS)C(=O)O` [cysteine], the “change of AKAP1 expression” value (AKAP1) was “decreasing”.
With `O=C(O)CO` [glycolic acid] the “change of PPARGC1B expression” value (PPARGC1B [3]) was “increased”.
In the case of `C=C[C@@](C)(/C=C/c1ccc(O)cc1)CCC=C(C)C` [bakuchiol], the inhibition at 5 ppm ([2]; 5 ppm, FIG. 5, read-out: reduction of melanin production (Y, Z)) is reported as roughly 2.07% and the “change of BNC2 expression” value (BNC2) is reported as “decreasing”.
For `C[C@H]1[C@H](C)CC[C@]2(C(=O)O[C@@H]3O[C@H](CO[C@@H]4O[C@H](CO)[C@@H](O[C@@H]5O[C@@H](C)[C@H](O)[C@@H](O)[C@H]5O)[C@H](O)[C@H]4O)[C@@H](O)[C@H](O)[C@H]3O)CC[C@]3(C)C(=CC[C@@H]4[C@@]5(C)C[C@@H](O)[C@H](O)[C@@](C)(CO)[C@@H]5CC[C@]43C)[C@H]12` [asiaticoside], the “change of TP63 expression” value (TP63) was “decreased”.
For `O=C1O[C@H]([C@@H](O)CO)C(O)=C1O[C@H]1O[C@H](CO)[C@@H](O)[C@H](O)[C@H]1O` [ascorbyl glucoside], the “change of PPARGC1B expression” value (PPARGC1B [4]) was “increased”.
